≈ marks a conversion by molar mass, not a printed value.
Legend:
Experiment in all cases: MIC, broth-microdilution (CLSI VET01-A4)
Format in all cases: cell-based
[1] = test system: Mannheimia haemolytica MH 13065 (XB0446-6003.9, BRD field isolate)
Description: (§1) The Minimum inhibitory concentrations (MIC) of compounds according to the invention for a number of veterinary bacterial pathogens were determined by the broth-microdilution method according to CLSI document VET01-A4.
(§2) Microdilution trays containing a doubling dilution series of the test compound were used for the tests. The MIC results were interpreted according to the CLSI documents VET01-S3. The lowest concentration of compound at which no visible growth (i.e. no turbidity) detected by the unaided eye was recorded as the MIC.

[2] = test system: Mannheimia haemolytica MH 13093 (XB0472-6014.1, BRD field isolate)
Description: as §1, §2

[3] = test system: Pasteurella multocida PM 6267 (P 2225 (L386), reference strain, mouse infection strain); conditions: Pasteurella multocida PM 6267; for MIC: read-out: MIC PM 6267
Description: as §1, §2
(§3) The Minimum inhibitory concentrations (MIC) of compounds according to the invention were determined by the broth-microdilution method according to CLSI document VET01-A4.
(§4) Microdilution trays containing a doubling dilution series of the test compound were used for the tests.
(§5) The MIC results were interpreted according to the CLSI documents VET01-S3. The lowest concentration of compound at which no visible growth (i.e. no turbidity) detected by the unaided eye was recorded as the MIC.

[4] = test system: Mannheimia haemolytica MH 12587 (1071, BRD field isolate, macrolide-resistance: erm+, E+); conditions: Mannheimia haemolytica MH 12587, macrolide-resistant
Description: as §1, §2, §3, §4, §5

[5] = test system: Pasteurella multocida PM 6391 (ATCC 43137, reference strain); conditions: Pasteurella multocida PM 6391; for MIC: read-out: MIC PM 6391
Description: as §1, §2, §3, §4, §5

[6] = test system: Pasteurella multocida PM 12080 (IV102277-0093, BRD field isolate); conditions: Pasteurella multocida PM 12080; for MIC: read-out: MIC PM 12080
Description: as §1, §2, §3, §4, §5

[7] = test system: Mannheimia haemolytica MH 6374 (ATCC 33396, reference strain); conditions: Mannheimia haemolytica MH 6374; read-out: MIC MH 6374
Description: as §1, §2, §3, §4, §5

[8] = test system: Pasteurella multocida PM 10775 (080130003051, BRD field isolate); conditions: Pasteurella multocida PM 10775
Description: as §1, §2, §3, §4, §5

[9] = test system: Mannheimia haemolytica MH 6357 (M7/2, reference strain, cattle infection strain); conditions: Mannheimia haemolytica MH 6357; read-out: MIC MH 6357
Description: as §1, §2, §3, §4, §5

[10] = test system: Mannheimia haemolytica MH 10720 (154, BRD field isolate); conditions: Mannheimia haemolytica MH 10720
Description: as §1, §2, §3, §4, §5

Row | SMILES | MIC [1] [µM] | MIC [2] [µM] | MIC PM 6267 [3] | MIC MH 12587 [4] [µM] | MIC PM 6391 [5] | MIC PM 12080 [6] | MIC [7] [µM] | MIC PM 10775 [8] | MIC [9] [µM] | MIC MH 10720 [10] | MIC [5] [µM] | MIC ([10]; read-out: MIC MH 10720) [µM] | MIC [6] [µM] | MIC [3] [µM]
1 | Cc1ccc(CNCc2ccc(C#Cc3ccc(C(=O)N[C@H](C(=O)NO)[C@@H](C)O)cc3)cc2)cc1 [Compound 261] | 0.4 (≈ 0.189 µg/mL) | 0.8 (≈ 0.377 µg/mL) | <=0.1 μM | 0.8 (≈ 0.377 µg/mL) | <=0.1 μM | <=0.1 μM | 0.2 (≈ 0.0943 µg/mL) | <=0.1 μM | 0.2 (≈ 0.0943 µg/mL) | <=0.1 μM | – | – | – | –
2 | C[C@@H](O)[C@H](NC(=O)c1ccc(C#Cc2ccc(CN3CCOCC3)s2)cc1)C(=O)NO [C. 192] | 0.8 (≈ 0.355 µg/mL) | 0.8 (≈ 0.355 µg/mL) | <=0.1 μM | 1.6 (≈ 0.71 µg/mL) | – | <=0.1 μM | 0.8 (≈ 0.355 µg/mL) | <=0.1 μM | 0.8 (≈ 0.355 µg/mL) | – | 0.2 (≈ 0.0887 µg/mL) | 0.2 (≈ 0.0887 µg/mL) | – | –
3 | Cc1cnc(CNCc2ccc(C#Cc3ccc(C(=O)NC(C(=O)NO)C(C)(C)N)cc3)s2)o1 (racemic) [Compound 636] | 1.6 (≈ 0.771 µg/mL) | 0.8 (≈ 0.385 µg/mL) | <=0.1 μM | 1.6 (≈ 0.771 µg/mL) | – | – | 0.4 (≈ 0.193 µg/mL) | <=0.1 μM | 0.8 (≈ 0.385 µg/mL) | <=0.1 μM | 0.4 (≈ 0.193 µg/mL) | – | 0.4 (≈ 0.193 µg/mL) | –
4 | C[C@@H](O)[C@H](NC(=O)c1ccc(C#Cc2ccc(CNCc3cccnc3)s2)cc1)C(=O)NO [Compound 407] | 0.2 (≈ 0.0929 µg/mL) | 0.4 (≈ 0.186 µg/mL) | <=0.1 μM | 0.4 (≈ 0.186 µg/mL) | <=0.1 μM | <=0.1 μM | 0.4 (≈ 0.186 µg/mL) | <=0.1 μM | 0.4 (≈ 0.186 µg/mL) | – | – | – | – | –
5 | C[C@@H](O)[C@H](NC(=O)c1ccc(C#Cc2ccc(CNCc3ccncc3)s2)cc1)C(=O)NO [Compound 401] | 0.4 (≈ 0.186 µg/mL) | 0.8 (≈ 0.372 µg/mL) | <=0.1 μM | 0.8 (≈ 0.372 µg/mL) | – | – | 0.8 (≈ 0.372 µg/mL) | <=0.1 μM | 0.4 (≈ 0.186 µg/mL) | – | 0.2 (≈ 0.0929 µg/mL) | – | 0.2 (≈ 0.0929 µg/mL) | –
6 | C[C@@H](O)[C@H](NC(=O)c1ccc(C#Cc2ccc(CNCC3CCCO3)s2)cc1)C(=O)NO (stereo partly drawn) [C. 412] | 0.8 (≈ 0.366 µg/mL) | 1.6 (≈ 0.732 µg/mL) | <=0.1 μM | 1.6 (≈ 0.732 µg/mL) | – | – | 0.8 (≈ 0.366 µg/mL) | <=0.1 μM | 0.8 (≈ 0.366 µg/mL) | – | 0.2 (≈ 0.0915 µg/mL) | – | 0.4 (≈ 0.183 µg/mL) | –
7 | C=CCNCc1ccc(C#Cc2ccc(C(=O)N[C@H](C(=O)NO)[C@@H](C)O)cc2)cn1 [C. 415] | 0.4 (≈ 0.163 µg/mL) | 1.6 (≈ 0.654 µg/mL) | – | 1.6 (≈ 0.654 µg/mL) | – | – | 1.6 (≈ 0.654 µg/mL) | <=0.1 μM | 0.8 (≈ 0.327 µg/mL) | – | 0.2 (≈ 0.0817 µg/mL) | – | 0.4 (≈ 0.163 µg/mL) | 0.2 (≈ 0.0817 µg/mL)
8 | C[C@@H](O)[C@H](NC(=O)c1ccc(C#Cc2ccc(CNC3CC3)nc2)cc1)C(=O)NO [C. 413] | 0.4 (≈ 0.163 µg/mL) | 0.4 (≈ 0.163 µg/mL) | <=0.1 μM | 0.8 (≈ 0.327 µg/mL) | <=0.1 μM | <=0.1 μM | 0.8 (≈ 0.327 µg/mL) | <=0.1 μM | 0.4 (≈ 0.163 µg/mL) | – | – | – | – | –
9 | C[C@@H](O)[C@H](NC(=O)c1ccc(C#Cc2ccc(CNCC#N)s2)cc1)C(=O)NO [Compound 406] | 0.8 (≈ 0.33 µg/mL) | 1.6 (≈ 0.66 µg/mL) | <=0.1 μM | 1.6 (≈ 0.66 µg/mL) | – | – | 1.6 (≈ 0.66 µg/mL) | <=0.1 μM | 1.6 (≈ 0.66 µg/mL) | – | 0.2 (≈ 0.0825 µg/mL) | – | 0.4 (≈ 0.165 µg/mL) | –
10 | CCCNCc1ccc(C#Cc2ccc(C(=O)N[C@H](C(=O)NO)[C@@H](C)O)cc2)s1 [Compound 404] | 0.8 (≈ 0.332 µg/mL) | 1.6 (≈ 0.665 µg/mL) | – | 1.6 (≈ 0.665 µg/mL) | – | – | 1.6 (≈ 0.665 µg/mL) | <=0.1 μM | 1.6 (≈ 0.665 µg/mL) | – | 0.4 (≈ 0.166 µg/mL) | – | 0.8 (≈ 0.332 µg/mL) | 0.4 (≈ 0.166 µg/mL)
